A word on the DC50: it is the midpoint of the concentration-degradation curve. By Dmax is commonly meant the greatest extent of degradation seen.

The target in this assay is IKZF2 (Homo sapiens (Human), UniProt Q96SW2+Q9UKS7). The assay is described as follows: IKZF2 HiBiT Assay (Jurkat-IKZF2-HiBiT cell line). The format is cell-based. The settings on record: Jurkat-IKZF2-HiBiT cells, 24 hours; for DC50: read-out: HiBit assay degradation analysis DC50; for Dmax: read-out: HiBit assay degradation analysis Dmax. In short, it runs like this: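 IKZF2 degradation was assessed as HiBiT luminescence in Jurkat-IKZF2-HiBiT cells, using lytic detection after 24 h of compound treatment at 37 °C, 5% CO2.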
IKZF2, sequence (Q9UKS7 whole entry): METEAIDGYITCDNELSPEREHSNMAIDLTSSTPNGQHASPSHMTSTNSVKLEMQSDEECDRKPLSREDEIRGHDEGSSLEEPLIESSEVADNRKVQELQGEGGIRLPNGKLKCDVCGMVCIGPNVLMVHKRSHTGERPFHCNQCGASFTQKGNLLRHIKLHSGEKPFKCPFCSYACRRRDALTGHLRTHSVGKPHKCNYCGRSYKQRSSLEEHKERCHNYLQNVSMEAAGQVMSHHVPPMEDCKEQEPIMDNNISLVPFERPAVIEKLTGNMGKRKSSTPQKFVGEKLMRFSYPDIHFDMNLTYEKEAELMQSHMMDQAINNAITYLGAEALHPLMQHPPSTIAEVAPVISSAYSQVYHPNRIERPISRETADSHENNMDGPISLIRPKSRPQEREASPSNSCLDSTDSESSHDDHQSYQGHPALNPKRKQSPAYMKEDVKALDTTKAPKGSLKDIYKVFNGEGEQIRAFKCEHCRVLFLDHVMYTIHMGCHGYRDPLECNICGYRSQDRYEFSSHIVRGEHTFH
IKZF2, sequence (Q96SW2 whole entry): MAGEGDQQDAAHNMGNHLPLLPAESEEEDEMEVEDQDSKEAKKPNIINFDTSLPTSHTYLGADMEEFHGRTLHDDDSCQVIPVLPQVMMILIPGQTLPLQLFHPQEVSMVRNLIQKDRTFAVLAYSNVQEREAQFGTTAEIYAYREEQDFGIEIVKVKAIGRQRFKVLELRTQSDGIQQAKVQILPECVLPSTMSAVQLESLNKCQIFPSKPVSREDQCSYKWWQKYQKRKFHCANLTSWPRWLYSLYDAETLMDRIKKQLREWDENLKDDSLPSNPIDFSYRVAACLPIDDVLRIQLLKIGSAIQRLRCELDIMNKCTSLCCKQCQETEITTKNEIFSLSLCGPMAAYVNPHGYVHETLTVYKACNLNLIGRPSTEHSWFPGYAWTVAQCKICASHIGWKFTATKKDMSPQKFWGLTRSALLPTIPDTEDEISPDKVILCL
IKZF2, sequence (Q16531 whole entry partner): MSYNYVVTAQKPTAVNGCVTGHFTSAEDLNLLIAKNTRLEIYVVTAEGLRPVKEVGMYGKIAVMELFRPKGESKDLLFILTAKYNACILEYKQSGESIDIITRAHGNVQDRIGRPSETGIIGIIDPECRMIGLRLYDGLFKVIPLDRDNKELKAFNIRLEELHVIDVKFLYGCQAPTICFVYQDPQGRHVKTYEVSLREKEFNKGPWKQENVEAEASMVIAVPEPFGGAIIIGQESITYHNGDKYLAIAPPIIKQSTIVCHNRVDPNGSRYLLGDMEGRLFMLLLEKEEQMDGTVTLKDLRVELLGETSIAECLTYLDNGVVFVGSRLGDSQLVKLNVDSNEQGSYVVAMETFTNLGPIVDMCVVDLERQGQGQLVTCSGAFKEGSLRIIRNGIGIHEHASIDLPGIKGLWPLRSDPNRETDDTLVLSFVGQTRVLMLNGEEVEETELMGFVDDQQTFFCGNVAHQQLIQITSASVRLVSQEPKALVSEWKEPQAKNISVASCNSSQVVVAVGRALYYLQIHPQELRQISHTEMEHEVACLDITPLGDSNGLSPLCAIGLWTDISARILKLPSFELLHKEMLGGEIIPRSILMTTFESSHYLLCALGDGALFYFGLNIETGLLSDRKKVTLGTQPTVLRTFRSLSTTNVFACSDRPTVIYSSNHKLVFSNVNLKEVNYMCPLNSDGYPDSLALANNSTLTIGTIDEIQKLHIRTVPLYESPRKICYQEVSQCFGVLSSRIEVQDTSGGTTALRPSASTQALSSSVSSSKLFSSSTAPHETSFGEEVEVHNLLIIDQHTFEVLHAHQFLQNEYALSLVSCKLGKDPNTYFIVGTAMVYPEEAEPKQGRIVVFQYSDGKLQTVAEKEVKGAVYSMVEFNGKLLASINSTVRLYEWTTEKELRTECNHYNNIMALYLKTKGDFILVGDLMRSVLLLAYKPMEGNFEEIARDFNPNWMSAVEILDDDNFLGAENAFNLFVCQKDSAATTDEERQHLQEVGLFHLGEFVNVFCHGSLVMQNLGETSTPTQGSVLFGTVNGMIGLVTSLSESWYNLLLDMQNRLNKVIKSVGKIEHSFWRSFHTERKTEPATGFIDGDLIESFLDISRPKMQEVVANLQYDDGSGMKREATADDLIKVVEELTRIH
On the technique in general: HiBiT is a short tag that completes a luciferase, so light tracks the accessible tagged protein.

With `O=C1CCC(N2Cc3c(ccc4c3OCC43CCN(Cc4nc(-c5ccccc5)cs4)CC3)C2=O)C(=O)N1` (centres unmarked) [Compound A85, 3-(6-oxo-1′-((4-phenylthiazol-2-yl)methyl)-6,8-dihydro-2H,7H-spiro[furo[2,3-e]isoindole-3,4′-piperidin]-7-yl)piperidine-2,6-dione], the half-maximal degradation concentration (DC50) is over 0.5 µM and the maximal degradation (Dmax) is under 40%.
Consider `O=C1CCC(N2Cc3c(ccc4c3OCC43CCN(Cc4c(F)ccc5occc45)CC3)C2=O)C(=O)N1` (centres unmarked) [Compound A223, 3-(1′-((5-fluorobenzofuran-4-yl)methyl)-6-oxo-6,8-dihydro-2H,7H-spiro[furo[2,3-e]isoindole-3,4′-piperidin]-7-yl)piperidine-2,6-dione], for which the DC50 lay within 0.2 to 0.5 µM and the Dmax is 40 to 60%.
With `O=C1CC[C@H](N2Cc3c(ccc4c3OCC43CCN(Cc4ccc5cn(C(F)F)nc5c4)CC3)C2=O)C(=O)N1` [Compound A288, (S)-3-(1′-((2-(difluoromethyl)-2H-indazol-6-yl)methyl)-6-oxo-6,8-dihydro-2H,7H-spiro[furo[2,3-e]isoindole-3,4′-piperidin]-7-yl)piperidine-2,6-dione], the DC50 is under 0.05 µM and the Dmax was 60 to 80%.
Turning to `O=C1CCC(N2Cc3c(ccc4c3OCC43CCN(C[C@H]4C[C@@H]4c4ccccc4)CC3)C2=O)C(=O)N1` (relative stereo) [Compound A180, 3-(6-oxo-1′-((trans-2-phenylcyclopropyl)methyl)-6,8-dihydro-2H,7H-spiro[furo[2,3-e]isoindole-3,4′-piperidin]-7-yl)piperidine-2,6-dione], the DC50 is over 0.5 µM and the Dmax was under 40%.
Regarding `Cn1ccc2cccc(CN3CCC4(CC3)COc3c4ccc4c3CN(C3CCC(=O)NC3=O)C4=O)c21` (centres unmarked) [Compound A74, 3-(1′-((1-methyl-1H-indol-7-yl)methyl)-6-oxo-6,8-dihydro-2H,7H-spiro[furo[2,3-e]isoindole-3,4′-piperidin]-7-yl)piperidine-2,6-dione], the DC50 lay in the range of 0.05 to 0.2 µM and the Dmax fell in the range of 60 to 80%.
With `O=C1CCC(N2Cc3c(ccc4c3OCC43CCN(Cc4ccc5ncccc5c4)CC3)C2=O)C(=O)N1` (centres unmarked) [Compound A46, 3-(6-oxo-1′-(quinolin-6-ylmethyl)-6,8-dihydro-2H,7H-spiro[furo[2,3-e]isoindole-3,4′-piperidin]-7-yl)piperidine-2,6-dione], the DC50 was 0.2 to 0.5 µM and the Dmax was 40 to 60%.
Turning to `CN(C)C(=O)c1ccc(CN2CCC3(CC2)COc2c3ccc3c2CN(C2CCC(=O)NC2=O)C3=O)cc1` (centres unmarked) [Compound A201, 4-((7-(2,6-dioxopiperidin-3-yl)-6-oxo-7,8-dihydro-2H,6H-spiro[furo[2,3-e]isoindole-3,4′-piperidin]-1′-yl)methyl)-N,N-dimethylbenzamide], the DC50 is over 0.5 µM and the Dmax is under 40%.
Regarding `O=C1CCC(N2Cc3c(ccc4c3OCC43CCN(Cc4ccc(Cl)cc4)CC3)C2=O)C(=O)N1` (centres unmarked) [Compound A32], the DC50 is over 0.5 µM and the Dmax was under 40%.
For `O=C1CCC(N2Cc3c(ccc4c3OCC43CCN(Cc4ccc(Cl)c5ccccc45)CC3)C2=O)C(=O)N1` (centres unmarked) [Compound A37, 3-(1′-((4-chloronaphthalen-1-yl)methyl)-6-oxo-6,8-dihydro-2H,7H-spiro[furo[2,3-e]isoindole-3,4′-piperidin]-7-yl)piperidine-2,6-dione], the DC50 was over 0.5 µM and the Dmax was 40 to 60%.
Take `O=C1CCC(N2Cc3c(ccc4c3OCC43CCN(Cc4ccccc4-n4ccnc4)CC3)C2=O)C(=O)N1` (centres unmarked) [Compound A149, 3-(1′-(2-(1H-imidazol-1-yl)benzyl)-6-oxo-6,8-dihydro-2H,7H-spiro[furo[2,3-e]isoindole-3,4′-piperidin]-7-yl)piperidine-2,6-dione]: the DC50 is over 0.5 µM and the Dmax was under 40%.
As for `O=C1CCC(N2Cc3c(ccc4c3OCC43CCN(Cc4nncn4-c4ccccc4)CC3)C2=O)C(=O)N1` (centres unmarked) [Compound A253, 3-(6-oxo-1′-((4-phenyl-4H-1,2,4-triazol-3-yl)methyl)-6,8-dihydro-2H,7H-spiro[furo[2,3-e]isoindole-3,4′-piperidin]-7-yl)piperidine-2,6-dione], the DC50 was over 0.5 µM and the Dmax was under 40%.
With `O=C1CCC(N2Cc3c(ccc4c3OCC43CCN(Cc4cccc5c4CCCC5)CC3)C2=O)C(=O)N1` (centres unmarked) [Compound A208, 3-(6-oxo-1′-((5,6,7,8-tetrahydronaphthalen-1-yl)methyl)-6,8-dihydro-2H,7H-spiro[furo[2,3-e]isoindole-3,4′-piperidin]-7-yl)piperidine-2,6-dione], the DC50 is under 0.05 µM and the Dmax lay within 60 to 80%.
As for `O=C1CCC(N2Cc3c(ccc4c3OCC43CCN(Cc4ccccc4Cn4cccn4)CC3)C2=O)C(=O)N1` (centres unmarked) [Compound A155, 3-(1′-(2-((1H-pyrazol-1-yl)methyl)benzyl)-6-oxo-6,8-dihydro-2H,7H-spiro[furo[2,3-e]isoindole-3,4′-piperidin]-7-yl)piperidine-2,6-dione], the 50% degradation concentration (DC50) is over 0.5 µM and the Dmax is 40 to 60%.
With `N#Cc1ccc(CN2CCC3(CC2)COc2c3ccc3c2CN(C2CCC(=O)NC2=O)C3=O)cc1Cl` (centres unmarked) [Compound A33, 2-chloro-4-((7-(2,6-dioxopiperidin-3-yl)-6-oxo-7,8-dihydro-2H,6H-spiro[furo[2,3-e]isoindole-3,4′-piperidin]-1′-yl)methyl)benzonitrile], the DC50 is over 0.5 µM and the Dmax was 40 to 60%.
As to `Cc1cc2c(CN3CCC4(CC3)COc3c4ccc4c3CN(C3CCC(=O)NC3=O)C4=O)cccc2[nH]1` (centres unmarked) [Compound A121, 3-(1′-((2-methyl-1H-indol-4-yl)methyl)-6-oxo-6,8-dihydro-2H,7H-spiro[furo[2,3-e]isoindole-3,4′-piperidin]-7-yl)piperidine-2,6-dione], the DC50 was under 0.05 µM and the Dmax fell in the range of 60 to 80%.
Regarding `O=C1CCC(N2Cc3c(ccc4c3OCC43CCN(Cc4ccc5c(Cl)n[nH]c5c4)CC3)C2=O)C(=O)N1` (centres unmarked) [Compound A142, 3-(1′-((3-chloro-1H-indazol-6-yl)methyl)-6-oxo-6,8-dihydro-2H,7H-spiro[furo[2,3-e]isoindole-3,4′-piperidin]-7-yl)piperidine-2,6-dione], the DC50 is 0.05 to 0.2 µM and the Dmax was 60 to 80%.
Consider `COCCn1ncc2c(CN3CCC4(CC3)COc3c4ccc4c3CN(C3CCC(=O)NC3=O)C4=O)cccc21` (centres unmarked) [Compound A343, 3-(1′-((1-(2-methoxyethyl)-1H-indazol-4-yl)methyl)-6-oxo-6,8-dihydro-2H,7H-spiro[furo[2,3-e]isoindole-3,4′-piperidin]-7-yl)piperidine-2,6-dione], for which the 50% degradation concentration (DC50) is over 0.5 µM and the Dmax lay within 40 to 60%.
As for `O=C1CC[C@H](N2Cc3c(ccc4c3OCC43CCN(Cc4ccc5c(c4)NC(=O)C5)CC3)C2=O)C(=O)N1` [Compound A173, (S)-3-(6-oxo-1′-((2-oxoindolin-6-yl)methyl)-6,8-dihydro-2H,7H-spiro[furo[2,3-e]isoindole-3,4′-piperidin]-7-yl)piperidine-2,6-dione], the DC50 fell in the range of 0.05 to 0.2 µM and the Dmax fell in the range of 60 to 80%.
In the case of `O=C1CCC(N2Cc3c(ccc4c3OCC43CCN(Cc4cc(F)cc(F)c4)CC3)C2=O)C(=O)N1` (centres unmarked) [Compound A28, 3-(1′-(3,5-difluorobenzyl)-6-oxo-6,8-dihydro-2H,7H-spiro[furo[2,3-e]isoindole-3,4′-piperidin]-7-yl)piperidine-2,6-dione], the DC50 is over 0.5 µM and the Dmax lay in the range of 40 to 60%.
In the case of `CS(=O)(=O)Nc1cccc(CN2CCC3(CC2)COc2c3ccc3c2CN(C2CCC(=O)NC2=O)C3=O)c1` (centres unmarked) [Compound A159, N-(3-((7-(2,6-dioxopiperidin-3-yl)-6-oxo-7,8-dihydro-2H,6H-spiro[furo[2,3-e]isoindole-3,4′-piperidin]-1′-yl)methyl)phenyl) methanesulfonamide], the DC50 was over 0.5 µM and the Dmax was in the range of 40 to 60%.
Consider `CC1(Cn2cc(CN3CCC4(CC3)COc3c4ccc4c3CN(C3CCC(=O)NC3=O)C4=O)cn2)COC1` (centres unmarked) [Compound A320, 3-(1′-((1-((3-methyloxetan-3-yl)methyl)-1H-pyrazol-4-yl)methyl)-6-oxo-6,8-dihydro-2H,7H-spiro[furo[2,3-e]isoindole-3,4′-piperidin]-7-yl)piperidine-2,6-dione], for which the DC50 was over 0.5 µM and the Dmax lay within 40 to 60%.
Take `O=C1CCC(N2Cc3c(ccc4c3OCC43CCN(Cc4cccn5ccnc45)CC3)C2=O)C(=O)N1` (centres unmarked) [Compound A77, 3-(1′-(imidazo[1,2-a]pyridin-8-ylmethyl)-6-oxo-6,8-dihydro-2H,7H-spiro[furo[2,3-e]isoindole-3,4′-piperidin]-7-yl)piperidine-2,6-dione]: the DC50 is over 0.5 µM and the Dmax was in the range of 40 to 60%.
The corresponding values for `CC(C)c1ccc(CN2CCC3(CC2)COc2c3ccc3c2CN(C2CCC(=O)NC2=O)C3=O)cc1` (centres unmarked) [Compound A191, 3-(1′-(4-isopropylbenzyl)-6-oxo-6,8-dihydro-2H,7H-spiro[furo[2,3-e]isoindole-3,4′-piperidin]-7-yl)piperidine-2,6-dione] are over 0.5 µM and under 40%.
Turning to `CCn1cc(CN2CCC3(CC2)COc2c3ccc3c2CN(C2CCC(=O)NC2=O)C3=O)cn1` (centres unmarked) [Compound A229, 3-(1′-((1-ethyl-1H-pyrazol-4-yl)methyl)-6-oxo-6,8-dihydro-2H,7H-spiro[furo[2,3-e]isoindole-3,4′-piperidin]-7-yl)piperidine-2,6-dione], the DC50 was over 0.5 µM and the Dmax lay in the range of 40 to 60%.
Take `O=C1CC[C@H](N2Cc3c(ccc4c3OCC43CCN(Cc4cnn(S(=O)(=O)c5ccccc5Cl)c4)CC3)C2=O)C(=O)N1` [Compound A349, (S)-3-(1′-((1-((2-chlorophenyl)sulfonyl)-1H-pyrazol-4-yl)methyl)-6-oxo-6,8-dihydro-2H,7H-spiro[furo[2,3-e]isoindole-3,4′-piperidin]-7-yl)piperidine-2,6-dione]: the DC50 is under 0.05 µM and the Dmax was 60 to 80%.

Values taken from patent US20250215012A1, “IKZF2 DEGRADERS AND USES THEREOF” (REGENTS OF THE UNIVERSITY OF MICHIGAN, priority 2022, published 2025).
